Results published in patent publication US8828950B2, “Caspase inhibitors in the treatment of infection-associated preterm delivery” (Cedars-Sinai Medical Center, priority 2007, dated 2014).
“Also recorded” adds a separate entry of the source. Residues, ends and D or L forms follow the SMILES beside them. *: point of attachment. Cbz = O=C(OCc1ccccc1)*; CH2F = FC*

Assays:
[1] = tested on: primary human trophoblasts and fibroblasts; details: in vitro pretreatment; Equils et al., 2006; cited from earlier work
[2] = tested on: pregnant mice injected with LPS; assay: LPS-induced pup mortality/abortion in pregnant Cox2/luciferase mice (bioluminescence imaging); type: in vivo, mouse; details: for pup (fetal) mortality / abortion after LPS: 0.25 mg ip 5-30 minutes prior to each ip LPS injection, 14 day pregnant mouse
Source text: Therefore, the use of caspase inhibitors confers a protective effect not seen by merely controlling infection through the use of antibiotics. As one of skill in the art will realize that the murine model can provide a guide to expected outcomes in human pregnancy, it is believed that caspase inhibitor treatment will be effective in the treatment of pregnant women with intrauterine infection so as to prevent preterm delivery and improve pregnancy outcome. This is a novel mammalian model for the improvement of pregnancy outcome.
Our experimental test method is based on the use of a mouse model in which inflammation (as assessed by Cox2 promoter activation) is detected optically by using a transgenic animal in which activation of the promoter results in synthesis of luciferase. When luciferin is subsequently injected, the presence of luciferase is detected by a sensitive camera as the production of light. The detected inflammation is indicative of the infection caused by the LPS injection.
In FIG. 1, pregnant mice are imaged. The mice were first mated with Cox2/luciferase males so that the pups would be positive for the Cox2/luciferase construct. The mice were treated with LPS which is normally produced by bacteria and results in inflammation. We injected pregnant mice with 0.1 microgram/ml LPS intraperitoneally (ip) for the control mice 0-24 hours (using a 2, 4, 6, 12 hour time course) prior to the imaging. The resulting inflammation causes the upregulation of Cox2 promoter in the pups resulting in the synthesis of luciferase. […] The treatment mice were given 0.25 mg ip of the pancaspase inhibitor 5-30 minutes prior to each LPS injection.
In the case of the control mouse (right-hand side of FIG. 1) inflammation results in the abortion of the pups (no bioluminescence detected). […] Thus, in the case of inflammation resulting from infection (as is common in cases of preterm delivery in humans) effective treatment includes antibiotic to reduce or eliminate the infection and caspase inhibitor to prevent preterm delivery.

[3] = tested on: pregnant CD1 mice injected with HK-GBS; assay: HK-GBS-induced preterm delivery in day 14.5 pregnant CD1 mice; type: in vivo, mouse
Experimental: To assess whether caspase inhibition prevented HK-GBS-induced preterm delivery, unanesthetized day 14.5 pregnant CD1 mice (Harlan Laboratories, Madison, Wis.), which breed more effectively than inbred C57BL/6J mice, were pre-treated intraperitoneally with PBS, DMSO or the pancaspase inhibitor Z-VAD-FMK (10 mg/kg) 30 minutes prior to intraperitoneal injection with either 10^9 HK-GBS bacteria or medium. There were no differences in delivery outcomes following intraperitoneal injection with GBS whether or not animals were pretreated with either PBS or DMSO (diluents for the caspase inhibitor). Therefore these separate control pre-treatments are combined for the analyses.
Chi-square analysis was done to assess the effect of Z-VAD-FMK pretreatment on HK-GBS-induced preterm delivery.
Based upon that observation, we hypothesized that the generalized inhibition of caspases would prevent microbial antigen-induced preterm delivery in the mouse pregnancy model. In order to test this hypothesis we pre-treated day 14.5 pregnant CD1 mice either with Z-VAD-FMK (10 mg/kg dissolved in DMSO/PBS) or with medium intraperitoneally 30 minutes prior to intraperitoneal HK-GBS injection.

COC(=O)C[C@H](NC(=O)[C@H](C)NC(=O)[C@@H](NC(=O)OCc1ccccc1)C(C)C)C(=O)CF [Z-VAD-FMK, carbobenzoxy-valyl-alanyl-aspartyl-[O-methyl]-fluoromethylketone] (Cbz-Val-Ala-Asp(OMe)-CH2F)
cHSP60-induced apoptosis [1]: prevented Chlamydia heat shock protein (cHSP60)-induced apoptosis
pup (fetal) mortality / abortion after LPS [2]: prevents pup mortality; also recorded: the pups do not abort
pup (fetal) mortality / abortion after LPS ([2]; listed as Z-VAD FMK): reduces fetal mortality
pup (fetal) mortality / abortion after LPS ([2]; listed as pancaspase inhibitor): maintenance of pregnancy
inflammation as assessed by Cox2 promoter activation (bioluminescence) ([2]; 0.25 mg ip prior to ip LPS injection): continued inflammation; also recorded: does not prevent inflammation
Delivery <18 hr (%) ([3]; 10 mg/kg ip 30 minutes prior to ip 10^9 HK-GBS, 1 of n = 6, GBS alone 12 (86%) of n = 14, p value 0.0072): 1 (17%)
Delivery 18-24 hrs (%) ([3]; 10 mg/kg ip 30 minutes prior to ip 10^9 HK-GBS, 2 of n = 6, GBS alone 0 of n = 14, p value 0.079): 2 (33%)
Preterm Delivery (<24 hours) ([3]; 10 mg/kg ip 30 minutes prior to ip 10^9 HK-GBS, 3 of n = 6, GBS alone 12 (86%) of n = 14, p value 0.13): 3 (50%)
effect on HK-GBS-induced preterm delivery ([3]; ip pre-treatment 10 mg/kg, ip HK-GBS): delayed i.p. HK-GBS-induced preterm delivery; also recorded: significantly delayed preterm delivery at 18 hours
